Assay results: patent US20260256792A1, “TREATMENT OF CHRONIC SPONTANEOUS URTICARIA BY ADMINISTERING (R)-2-[3-[4-AMINO-3-(2-FLUORO-4-PHENOXY-PHENYL)PYRAZOLO[3,4-D]PYRIMIDIN-1-YL]PIPERIDINE-1-CARBONYL]-4-METHYL-4-[4-(OXETAN-3-YL)PIPERAZIN-1-YL]PENT-2-ENENITRILE” (priority 2023, published 2026)

Experiments:
[1] = test system: moderate-to-severe chronic spontaneous urticaria (CSU); assay: Phase 2 CSU study: Patient Global Impression of Change (PGIC); assay type: in vivo, human; settings: for PGIC category A little worse, patients / PGIC category Moderately better, patients / PGIC category Moderately worse, patients / PGIC category No change, patients / PGIC category Very much better, patients / PGIC category Very much worse, patients / PGIC Mean (SD) / PGIC Median / PGIC category A little better, patients: omalizumab-naïve population; for PGIC LS Mean (SE) / PGIC LS Mean Diff vs. placebo (95% CI): omalizumab-naïve, ANCOVA
Description: The study comprises a 12 week, randomized, double-blind, placebo-controlled, multi-center, dose-ranging efficacy and safety phase, followed by a 40 week open label extension (OLE) phase (see FIG. 1).
The study consists of three phases and an optional OLE phase.
The PGIS is a 1-item measure that asks participants to provide a self-assessment of their overall CSU severity for the past week on a 4 point scale. Response choices are: “None”, “Mild”, “Moderate” and “Severe”. The PGIC is a 1-item measure that asks the participant to provide a self-assessment of overall change in their CSU since the participant started taking the study medication on a 7-point scale. The response options range from “Very Much Better” to “Very Much Worse.” Patients were to complete questionnaires for the 2 items during their site visit.

[2] = test system: cardiac repolarization; settings: healthy volunteers (N=51), also supratherapeutic doses; cited from earlier work
[3] = test system: immune thrombocytopenic purpura (ITP); settings: cited from earlier work
[4] = test system: rat collagen-induced arthritis model; settings: cited from earlier work
[5] = test system: healthy volunteers; settings: cited from earlier work
[6] = test system: rat Arthus reaction; settings: cited from earlier work
[7] = test system: CYP3A; settings: cited from earlier work

CC(C)(C=C(C#N)C(=O)N1CCC[C@@H](n2nc(-c3ccc(Oc4ccccc4)cc3F)c3c(N)ncnc32)C1)N1CCN(C2COC2)CC1 [rilzabrutinib, (R)-2-[3-[4-amino-3-(2-fluoro-4-phenoxy-phenyl)pyrazolo[3,4-d]pyrimidin-1-yl]piperidine-1-carbonyl]-4-methyl-4-[4-(oxetan-3-yl)piperazin-1-yl]pent-2-enenitrile]
PGIC category A little worse, patients ([1]; Week 8, 400 mg BID): 1 (3.0) | PGIC category Moderately better, patients ([1]; Week 8, 400 mg BID): 8 (24.2) | PGIC category Moderately worse, patients ([1]; Week 8, 400 mg BID): 1 (3.0) | PGIC category No change, patients ([1]; Week 8, 400 mg BID): 6 (18.2) | PGIC category Very much better, patients ([1]; Week 8, 400 mg BID): 13 (39.4) | PGIC category Very much worse, patients ([1]; Week 8, 400 mg BID): 1 (3.0) | PGIC LS Mean (SE) ([1]; Week 8, 400 mg BID): 1.43 | PGIC LS Mean Diff vs. placebo (95% CI) ([1]; Week 8, 400 mg BID): −0.41 | PGIC Mean (SD) ([1]; Week 8, 400 mg QPM): 2.21 | PGIC Median ([1]; Week 8, 400 mg QPM): 2.00 | PGIC category A little better, patients ([1]; Week 8, 400 mg QPM): 9 (27.3) | PGIC category A little worse, patients ([1]; Week 8, 400 mg QPM): 2 (6.1) | PGIC category Moderately better, patients ([1]; Week 8, 400 mg QPM): 6 (18.2) | PGIC category Moderately worse, patients ([1]; Week 8, 400 mg QPM): 1 (3.0) | PGIC category No change, patients ([1]; Week 8, 400 mg QPM): 10 (30.3) | PGIC category Very much better, patients ([1]; Week 8, 400 mg QPM): 4 (12.1) | PGIC category Very much worse, patients ([1]; Week 8, 400 mg QPM): 1 (3.0) | PGIC LS Mean (SE) ([1]; Week 8, 400 mg QPM): 2.10 | PGIC LS Mean Diff vs. placebo (95% CI) ([1]; Week 8, 400 mg QPM): 0.27 | PGIC Mean (SD) ([1]; Week 8, 400 mg TID): 0.90 | PGIC Median ([1]; Week 8, 400 mg TID): 1.00 | PGIC category A little better, patients ([1]; Week 8, 400 mg TID): 2 (6.7) | PGIC category A little worse, patients ([1]; Week 8, 400 mg TID): 1 (3.3) | PGIC category Moderately better, patients ([1]; Week 8, 400 mg TID): 10 (33.3) | PGIC category Moderately worse, patients ([1]; Week 8, 400 mg TID): 0 | PGIC category No change, patients ([1]; Week 8, 400 mg TID): 3 (10.0) | PGIC category Very much better, patients ([1]; Week 8, 400 mg TID): 14 (46.7) | PGIC category Very much worse, patients ([1]; Week 8, 400 mg TID): 0 | PGIC LS Mean (SE) ([1]; Week 8, 400 mg TID): 0.98 | PGIC LS Mean Diff vs. placebo (95% CI) ([1]; Week 8, 400 mg TID): −0.86 | PGIC Mean (SD) ([1]; Week 12, 400 mg BID): 1.03 | PGIC Median ([1]; Week 12, 400 mg BID): 0.50 | PGIC category A little better, patients ([1]; Week 12, 400 mg BID): 1 (3.3) | PGIC category A little worse, patients ([1]; Week 12, 400 mg BID): 1 (3.3) | PGIC category Moderately better, patients ([1]; Week 12, 400 mg BID): 8 (26.7) | PGIC category Moderately worse, patients ([1]; Week 12, 400 mg BID): 1 (3.3) | PGIC category No change, patients ([1]; Week 12, 400 mg BID): 4 (13.3) | PGIC category Very much better, patients ([1]; Week 12, 400 mg BID): 15 (50.0) | PGIC category Very much worse, patients ([1]; Week 12, 400 mg BID): 0 | PGIC LS Mean (SE) ([1]; Week 12, 400 mg BID): 1.17 | PGIC LS Mean Diff vs. placebo (95% CI) ([1]; Week 12, 400 mg BID): −0.46 | PGIC Mean (SD) ([1]; Week 12, 400 mg QPM): 2.12 | PGIC Median ([1]; Week 12, 400 mg QPM): 2.00 | PGIC category A little better, patients ([1]; Week 12, 400 mg QPM): 7 (20.6) | PGIC category A little worse, patients ([1]; Week 12, 400 mg QPM): 2 (5.9) | PGIC category Moderately better, patients ([1]; Week 12, 400 mg QPM): 6 (17.6) | PGIC category Moderately worse, patients ([1]; Week 12, 400 mg QPM): 1 (2.9) | PGIC category No change, patients ([1]; Week 12, 400 mg QPM): 11 (32.4) | PGIC category Very much better, patients ([1]; Week 12, 400 mg QPM): 6 (17.6) | PGIC category Very much worse, patients ([1]; Week 12, 400 mg QPM): 1 (2.9) | PGIC LS Mean (SE) ([1]; Week 12, 400 mg QPM): 2.00 | PGIC LS Mean Diff vs. placebo (95% CI) ([1]; Week 12, 400 mg QPM): 0.38 | PGIC Mean (SD) ([1]; Week 12, 400 mg TID): 0.97 | PGIC Median ([1]; Week 12, 400 mg TID): 0.00 | PGIC category A little better, patients ([1]; Week 12, 400 mg TID): 4 (12.9) | PGIC category A little worse, patients ([1]; Week 12, 400 mg TID): 2 (6.5) | PGIC category Moderately better, patients ([1]; Week 12, 400 mg TID): 5 (16.1) | PGIC category Moderately worse, patients ([1]; Week 12, 400 mg TID): 0 | PGIC category No change, patients ([1]; Week 12, 400 mg TID): 3 (9.7) | PGIC category Very much better, patients ([1]; Week 12, 400 mg TID): 17 (54.8) | PGIC category Very much worse, patients ([1]; Week 12, 400 mg TID): 0 | PGIC LS Mean (SE) ([1]; Week 12, 400 mg TID): 0.98 | PGIC LS Mean Diff vs. placebo (95% CI) ([1]; Week 12, 400 mg TID): −0.64 | effects on cardiac repolarization (ECG parameters incl. corrected QT interval) [2]: does not exert clinically relevant effects | treatment-emergent serious adverse events (TESAEs) ([3]; ITP Phase 1/2): no treatment-emergent serious adverse events | participants achieving the primary response endpoint ([3]; ITP, treatment for at least 12 weeks): 50% | rat collagen-induced arthritis [4]: full disease reversal | most commonly reported adverse events [5]: gastrointestinal adverse events, including nausea/vomiting and diarrhea | serious adverse events or deaths [5]: No serious adverse events or deaths | rat Arthus reaction [6]: blockade | CYP3A inhibition [7]: mild inhibitor
